In ChEMBL document CHEMBL3734664, “Noncovalent Mutant Selective Epidermal Growth Factor Receptor Inhibitors: A Lead Optimization Case Study” (J Med Chem, 2015):
pEC50, pIC50, pKi: −log10 of the molar value. ≈ marks a conversion by molar mass, not a printed value.

What was measured:
[1] = biological target: T1, Epidermal growth factor receptor (Homo sapiens, UniProt P00533)
[2] = Plasma clearance in rat at 5 mg/kg, iv; format: ADME, organism-based
Rattus norvegicus [3] = assay: Unbound plasma clearance in rat at 5 mg/kg, iv; format: ADME, organism-based; conditions: in vivo
[4] = biological target: Epidermal growth factor receptor (Homo sapiens, UniProt P00533, L858R/T790M)
Sequence of Epidermal growth factor receptor (Homo sapiens, UniProt P00533, L858R/T790M) (P00533 25-1210 T790M/L858R limits assumed): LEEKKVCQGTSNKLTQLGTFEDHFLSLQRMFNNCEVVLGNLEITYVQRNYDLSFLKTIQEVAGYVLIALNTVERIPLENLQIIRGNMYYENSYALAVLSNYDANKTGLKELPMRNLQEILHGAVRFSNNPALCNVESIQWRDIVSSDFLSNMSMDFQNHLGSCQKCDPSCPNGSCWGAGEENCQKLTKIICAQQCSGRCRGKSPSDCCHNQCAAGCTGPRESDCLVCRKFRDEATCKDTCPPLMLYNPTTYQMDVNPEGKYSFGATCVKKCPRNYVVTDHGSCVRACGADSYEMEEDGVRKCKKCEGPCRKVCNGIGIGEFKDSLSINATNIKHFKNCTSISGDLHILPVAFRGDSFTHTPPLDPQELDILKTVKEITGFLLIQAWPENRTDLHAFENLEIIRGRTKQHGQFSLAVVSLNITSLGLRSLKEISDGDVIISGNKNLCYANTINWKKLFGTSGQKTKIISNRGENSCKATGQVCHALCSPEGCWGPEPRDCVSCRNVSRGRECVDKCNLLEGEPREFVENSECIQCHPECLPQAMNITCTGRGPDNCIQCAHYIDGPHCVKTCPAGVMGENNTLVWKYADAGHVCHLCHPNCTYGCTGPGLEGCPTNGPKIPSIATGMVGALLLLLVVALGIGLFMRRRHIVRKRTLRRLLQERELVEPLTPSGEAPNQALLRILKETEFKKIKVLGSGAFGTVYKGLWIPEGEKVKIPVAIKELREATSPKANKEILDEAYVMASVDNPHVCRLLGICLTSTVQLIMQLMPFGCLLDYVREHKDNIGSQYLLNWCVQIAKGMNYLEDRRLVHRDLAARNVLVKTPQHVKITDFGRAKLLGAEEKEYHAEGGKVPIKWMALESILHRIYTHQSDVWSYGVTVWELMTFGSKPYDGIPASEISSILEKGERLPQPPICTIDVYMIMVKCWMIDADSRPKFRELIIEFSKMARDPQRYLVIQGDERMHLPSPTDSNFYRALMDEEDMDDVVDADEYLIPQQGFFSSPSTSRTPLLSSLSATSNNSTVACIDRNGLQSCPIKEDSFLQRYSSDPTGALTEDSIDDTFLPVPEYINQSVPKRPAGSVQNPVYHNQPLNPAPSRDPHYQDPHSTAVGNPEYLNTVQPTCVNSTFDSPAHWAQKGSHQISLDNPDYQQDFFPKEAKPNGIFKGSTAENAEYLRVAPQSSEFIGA

physchem = conditions: buffer, pH 7.4, logD
Description: (§1) Lipophilicity, log D of the compound at pH 7.4 by microscale shake flask method

NCI-H1975 = assay: Antiproliferative activity against human NCI-H1975 cells expressing EGFR T790M/L858R double mutant after 72 hrs by luminescence assay; format: functional, cell-based; conditions: NCI-H1975, 72 h
[5] = Chemical stability under acidic conditions assessed as amide hydrolysis to acid form; format: physicochemical
[6] = Plasma clearance in rat at 0.5 mg/kg, iv; format: ADME, organism-based
Rattus norvegicus [7] = assay: Unbound plasma clearance in rat at 0.5 mg/kg, iv; format: ADME, organism-based; conditions: in vivo
Rattus norvegicus [8] = assay: Unbound plasma clearance in rat at 1 mg/kg, iv; format: ADME, organism-based; conditions: in vivo
[9] = biological target: T1, Epidermal growth factor receptor; remark: listed apart in the source
Description: Inhibition of EGFR phosphorylation in human NCI-H292 cells preincubated for 1 hr followed by stimulation with EGF for 8 mins by electrochemiluminescent immunoassay

[10] = Plasma clearance in rat at 1 mg/kg, iv; format: ADME, organism-based
Liver microsome [11] = assay: Stability in human liver microsomes; format: ADME
Hepatocyte [12] = assay: Stability in human hepatocytes; format: ADME, cell-based
NCI-H292 = assay: Antiproliferative activity against human NCI-H292 cells expressing wild type EGFR after 72 hrs by luminescence assay; format: functional, cell-based; conditions: NCI-H292, 72 h
Liver microsome [13] = assay: Drug metabolism in rat liver microsomes assessed as cis-3-Fluoro-1-{4-[2-((R)-1-hydroxyethyl)-1-((S)-2,2,2-trifluoro-1-methylethyl)-1Himidazo[4,5-c]pyridin-6-ylamino]pyrimidin-2-yl}piperidin-4-ol; format: ADME
[14] = biological target: T2, Epidermal growth factor receptor (Homo sapiens, UniProt P00533, 746-750DEL/T790M); assay: Inhibition of human EGFR T790M/del (746 to 750) deletion mutant using Fl-EEPLYWSFPAKKK-CONH2 as substrate preincubated for 30 mins followed by addition of substrate measured after 30 mins by Morrison plot analysis; format: protein assay; conditions: read-out: Ki(app)
T2 sequence (P00533 whole entry, looked up, stated change not applied): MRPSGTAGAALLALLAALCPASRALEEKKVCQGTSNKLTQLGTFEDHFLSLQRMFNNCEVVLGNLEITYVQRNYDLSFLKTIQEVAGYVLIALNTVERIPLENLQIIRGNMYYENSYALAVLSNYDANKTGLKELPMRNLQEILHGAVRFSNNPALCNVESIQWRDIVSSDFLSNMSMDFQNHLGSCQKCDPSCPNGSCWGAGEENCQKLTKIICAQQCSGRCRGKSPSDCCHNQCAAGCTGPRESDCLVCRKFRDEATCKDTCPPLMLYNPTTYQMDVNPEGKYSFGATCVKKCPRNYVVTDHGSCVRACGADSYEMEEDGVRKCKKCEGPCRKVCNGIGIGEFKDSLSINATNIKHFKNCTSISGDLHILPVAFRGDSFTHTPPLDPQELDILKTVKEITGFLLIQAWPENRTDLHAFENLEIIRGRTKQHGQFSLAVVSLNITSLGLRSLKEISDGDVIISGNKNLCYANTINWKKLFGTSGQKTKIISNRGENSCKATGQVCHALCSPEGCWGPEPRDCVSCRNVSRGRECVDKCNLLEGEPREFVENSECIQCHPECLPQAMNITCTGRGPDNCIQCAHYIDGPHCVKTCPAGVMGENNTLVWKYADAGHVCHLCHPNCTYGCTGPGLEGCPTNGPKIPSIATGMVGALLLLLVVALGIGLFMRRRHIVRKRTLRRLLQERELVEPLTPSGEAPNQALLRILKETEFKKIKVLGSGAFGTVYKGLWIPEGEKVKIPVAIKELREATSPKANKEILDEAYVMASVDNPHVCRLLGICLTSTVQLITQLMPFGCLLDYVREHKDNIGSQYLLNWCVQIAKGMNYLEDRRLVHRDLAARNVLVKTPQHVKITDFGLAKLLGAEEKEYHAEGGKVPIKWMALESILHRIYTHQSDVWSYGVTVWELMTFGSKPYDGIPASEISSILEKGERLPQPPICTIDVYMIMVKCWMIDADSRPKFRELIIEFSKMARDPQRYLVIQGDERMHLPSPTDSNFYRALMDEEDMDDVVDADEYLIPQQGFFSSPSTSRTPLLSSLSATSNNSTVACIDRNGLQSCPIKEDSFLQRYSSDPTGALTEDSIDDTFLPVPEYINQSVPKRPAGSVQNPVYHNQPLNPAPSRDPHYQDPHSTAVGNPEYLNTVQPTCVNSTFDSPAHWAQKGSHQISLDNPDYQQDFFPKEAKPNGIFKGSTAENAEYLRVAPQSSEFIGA

[15] = biological target: T2, Epidermal growth factor receptor; assay: Inhibition of EGFR T790M/del (746 to 750) deletion mutant phosphorylation in erlotinib-resistant human PC9 cells preincubated for 1 hr followed by stimulation with EGF for 8 mins by electrochemiluminescent immunoassay; format: cell-based, PC-9
[16] = Antiproliferative activity against erlotinib-resistant human PC9 cells expressing EGFR with ex19del and T790M mutations after 72 hrs by luminescence assay; format: functional, cell-based; conditions: PC-9, 72 h
[17] = Half life in rat; format: ADME, organism-based; conditions: in vivo
[18] = Volume of distribution at steady state in rat; format: ADME, organism-based; conditions: in vivo, read-out: Vdss
[19] = Oral bioavailability in rat; format: ADME, organism-based; conditions: in vivo
Hepatocyte [20] = assay: Drug metabolism in rat hepatocytes assessed as cis-3-Fluoro-1-{4-[2-((R)-1-hydroxyethyl)-1-((S)-2,2,2-trifluoro-1-methylethyl)-1Himidazo[4,5-c]pyridin-6-ylamino]pyrimidin-2-yl}piperidin-4-ol; format: ADME, cell-based
[21] = Unbound fraction in mouse plasma; format: ADME, cell-free
Mus musculus [22] = assay: In vivo inhibition of EGFR phosphorylation in human NCI-H1975 cells xenografted in SCID mouse at 300 mg/kg, po qd everyday for 3 days measured 2 to 8 hrs post last dose by electrochemiluminescent immunoassay; format: functional
Mus musculus [23] = assay: In vivo inhibition of EGFR in human NCI-H1975 cells xenografted in po dosed SCID mouse assessed as suppression of ERK phosphorylation administered as qd everyday for 3 days measured 2 to 8 hrs post last dose by electrochemiluminescent immunoassay; format: functional
Liver microsome [24] = assay: Drug level in rat liver microsomes treated with (R)-1-[6-[2-(cis-3-Fluoro-4-methoxypiperidin-1-yl)pyrimidin-4-ylamino]-1-((S)-2,2,2-trifluoro-1-methylethyl)-1H-imidazo[4,5-c]pyridin-2-yl]ethanol; format: ADME
Mus musculus [25] = assay: In vivo inhibition of EGFR in human NCI-H1975 cells xenografted in SCID mouse assessed as suppression of AKT phosphorylation at 300 mg/kg, po qd everyday for 3 days measured 2 to 8 hrs post last dose by electrochemiluminescent immunoassay; format: functional
Hepatocyte [26] = assay: Drug level in rat hepatocytes treated with (R)-1-[6-[2-(cis-3-Fluoro-4-methoxypiperidin-1-yl)pyrimidin-4-ylamino]-1-((S)-2,2,2-trifluoro-1-methylethyl)-1H-imidazo[4,5-c]pyridin-2-yl]ethanol; format: ADME, cell-based
Mus musculus [27] = assay: In vivo inhibition of EGFR in human NCI-H1975 cells xenografted in po dosed SCID mouse assessed as suppression of AKT phosphorylation administered as qd everyday for 3 days measured 2 to 8 hrs post last dose by electrochemiluminescent immunoassay; format: functional
Mus musculus [28] = assay: In vivo inhibition of EGFR in human NCI-H1975 cells xenografted in SCID mouse assessed as suppression of ERK phosphorylation at 300 mg/kg, po qd everyday for 3 days measured 2 to 8 hrs post last dose by electrochemiluminescent immunoassay; format: functional
Homo sapiens = species on record: Homo sapiens; assay: Selectivity ratio of Ki for human wild type EGFR to Ki for human EGFR T790M/L858R double mutant
[29] = Oral bioavailability in rat at 10 mg/kg; format: ADME, organism-based; conditions: in vivo
[30] = Apparent permeability from apical to basolateral side in MDCK cells; format: ADME, cell-based, Canis lupus familiaris; conditions: dog
[31] = Kinetic solubility of compound in PBS at pH 7.4 at 100 uM after 24 hrs; format: physicochemical; conditions: read-out: Kinetic_solubility
[32] = buffer, pH 7.4
Description: as §1

T1 sequence (P00533 whole entry): as the sequence (P00533 whole entry, looked up, stated change not applied) above

| Compound | pKi [1] | pKi [4] | logD (physchem) | pEC50 (NCI-H1975) | clearance [6] [mL/min/kg] | CL free (Rattus norvegicus [7]) [mL/min/kg] | pIC50 [9] | Stability (Liver microsome [11]) | Stability (Hepatocyte [12]) | also measured |
| --- | --- | --- | --- | --- | --- | --- | --- | --- | --- | --- |
| Cc1nc2cnc(Nc3ccnc(N4CC[C@H](O)[C@H](F)C4)n3)cc2n1C(C)C (racemic) | 6.04 | 7.89 | 1.5 | 5.80 | – | – | – | – | – | clearance [2]: 90 mL/min/kg; CL free (Rattus norvegicus [3]): 545 mL/min/kg |
| Cc1nc2cnc(Nc3ccnc(NCC(C)(C)C(N)=O)n3)cc2n1C(C)C | 6.41 | 7.66 | 1.5 | – | 250 | 909 | – | – | – | Stability [5]: Unstable |
| CO[C@H]1CCN(c2nccc(Nc3cc4c(cn3)nc(CO)n4C(C)C)n2)C[C@H]1F (racemic) | 6.82 | 8.37 | – | 6.06 | – | – | < 5.00 | – | – | CL free (Rattus norvegicus [8]): 584 mL/min/kg; clearance [10]: 107 mL/min/kg |
| CC(C)n1c(CO)nc2cnc(Nc3ccnc(N4CC[C@H](O)[C@H](F)C4)n3)cc21 (racemic) | < 9.28 | 7.80 | 1.6 | < 5.00 | 151 | 382 | < 5.00 | – | – | – |
| Cc1nc2cnc(Nc3ccnc(NCC(C)(C)S(C)(=O)=O)n3)cc2n1C(C)C | 5.74 | – | 1.4 | – | – | – | – | Stable | Stable | CL free (Rattus norvegicus [8]): 707 mL/min/kg; clearance [10]: 158 mL/min/kg |
| CO[C@H]1CCN(c2nccc(Nc3cc4c(cn3)nc([C@@H](C)O)n4[C@H](C)C(F)(F)F)n2)C[C@H]1F | 6.91 | 8.96 | 2.2 | 6.95 | – | – | < 5.00 | – | – | pEC50 (NCI-H292): 5.11; clearance [2]: 23 mL/min/kg; Drug metabolism (Liver microsome [13]): metabolite_detected; pKi [14]: 8.15; pIC50 [15]: 7.57; CL free (Rattus norvegicus [3]): 334 mL/min/kg; pEC50 [16]: 7.05; half-life [17]: 1.7 h; Vd [18]: 3.7 L/kg; bioavailability [19]: 85%; Drug metabolism (Hepatocyte [20]): metabolite_detected |
| Cc1nc2cnc(Nc3ccnc(OCC(C)(C)S(C)(=O)=O)n3)cc2n1C(C)C | 5.68 | 7.28 | 1.6 | – | 53 | 156 | – | Stable | Stable | – |
| Cc1nc2cnc(Nc3ccnc(N4CCC(C)(C(N)=O)C4)n3)cc2n1C(C)C (stereo unspecified) | 6.17 | 6.91 | 1.6 | – | – | – | – | Stable | Stable | – |
| Cc1nc2cnc(Nc3ccnc(N4CCC(S(C)(=O)=O)CC4)n3)cc2n1C(C)C | – | 7.19 | 1.6 | – | 165 | 934 | – | Stable | Stable | – |
| Cc1nc2cnc(Nc3ccnc(N4CCC(O)CC4)n3)cc2n1C(C)C | – | 7.47 | 1.8 | – | – | – | – | – | Unstable | – |
| COC1(CO)CCN(c2nccc(Nc3cc4c(cn3)nc(C)n4C(C)C)n2)CC1 | – | 7.62 | 1.7 | – | – | – | – | Stable | – | – |
| Cc1nc2cnc(Nc3ccnc(/C=C/C(C)(C)C(N)=O)n3)cc2n1C(C)C | < 5.82 | 6.71 | 2.2 | – | – | – | – | Stable | Stable | – |
| Cc1nc2cnc(Nc3ccnc(/C=C/C(C)(C)O)n3)cc2n1C(C)C | < 5.60 | – | 2 | – | 50 | 200 | – | – | – | – |
| C[C@@H](O)c1nc2cnc(Nc3ccnc(N4CC[C@H](O)[C@H](F)C4)n3)cc2n1[C@H](C)C(F)(F)F | 6.50 | 8.60 | 1.8 | 6.06 | – | – | < 5.00 | – | – | pEC50 (NCI-H292): < 5.00; clearance [2]: 71 mL/min/kg; fraction unbound [21]: 0.207; pKi [14]: 8.22; inhibition in vivo at 300 mg/kg (Mus musculus [22]): > 90%; fEC50 (Mus musculus [23]): 0.3 µM; pIC50 [15]: 7.09; CL free (Rattus norvegicus [3]): 348 mL/min/kg; Drug metabolism (Liver microsome [24]): metabolite_detected; pEC50 [16]: 6.77; inhibition in vivo at 300 mg/kg (Mus musculus [25]): > 65%; half-life [17]: 0.71 h; Vd [18]: 3.5 L/kg; bioavailability [19]: 29%; Drug metabolism (Hepatocyte [26]): metabolite_detected; fEC50 (Mus musculus [27]): 0.5 µM; inhibition in vivo at 300 mg/kg (Mus musculus [28]): > 90% |
| COC1CCN(c2nccc(Nc3cc4c(cn3)nc(C)n4C(C)C)n2)CC1 | 6.06 | 7.72 | 2.4 | 5.17 | – | – | < 5.00 | – | Stable | clearance [2]: 40 mL/min/kg; Ratio Ki (Homo sapiens): 46; CL free (Rattus norvegicus [3]): 620 mL/min/kg; bioavailability [29]: 30%; Papp A→B [30]: 29 ×10⁻⁶ cm/s; solubility kinetic at 24 h, 100 µM [31]: 87 µM (≈ 33.2 µg/mL) |
| CCC(C)n1cnc2cnc(Nc3ccnc(N4CCC(OC)CC4)n3)cc21 (racemic; form 2) | – | 7.77 | – | – | – | – | – | – | – | logD [32]: 2.9 |
